GI50 and TGI data for eight molecules are collected here from PubChem BioAssay (NCI).

Some test systems named below: K-562 leukemia; RPMI-8226 leukemia; UO-31 renal; OVCAR-4 ovarian; HT29 colon; OVCAR-5 ovarian; SF-268 CNS; COLO 205 colon; MOLT-4 leukemia; SR leukemia.
Holding throughout (assay): growth of human tumour cells (NCI), 48 h

SMILES strings stand for the structures.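 Step 1: Grow cells in 96-well plates. Step 2: Expose to compound for 48 hours at 5 concentrations. Step 3: Interpolate endpoints linearly; if unreached, use highest concentration. The concentration for 50% growth inhibition is given as GI50. At the TGI there is no net growth.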

Turning to `CCCCCCCCCCCC[C@@H](O)[C@H]1CC[C@H]([C@H](O)CC[C@H](O)[C@@H]2CC[C@@H](CCCCCCCC3=C[C@H](C)OC3=O)O2)O1`, the GI50 in the assay on K-562 leukemia was 3 µM; in the assay on RPMI-8226 leukemia, 2.45 µM; with UO-31 renal, 2.51 µM; in the assay with SF-268 CNS, 4.21 µM; with COLO 205 colon, 8.16 µM; in the assay on MOLT-4 leukemia, 2.55 µM. Also, the GI50 with SR leukemia is above 50 µM. The TGI in the assay on K-562 leukemia, with RPMI-8226 leukemia, in the assay on UO-31 renal, with OVCAR-4 ovarian, in the assay with HT29 colon and with OVCAR-5 ovarian was above 50 µM throughout. The TGI with SF-268 CNS, in the assay on COLO 205 colon, with MOLT-4 leukemia and in the assay with SR leukemia was above 50 µM throughout.

As to `CCOC(=O)/C(=C\c1cccc(C)c1)C(C)=O`, the TGI in the assay with K-562 leukemia was above 100 µM; with RPMI-8226 leukemia, 32.2 µM; in the assay on UO-31 renal, 33.7 µM; with OVCAR-4 ovarian it was 59.6 µM; in the assay with HT29 colon, above 100 µM; in the assay on OVCAR-5 ovarian, 31 µM. Besides, the TGI with SF-268 CNS came to 45.4 µM; in the assay on COLO 205 colon it was 41 µM; in the assay with MOLT-4 leukemia it was 66.6 µM; in the assay on SR leukemia, 84.5 µM.

On to `N#CC(C#N)=C/C=C(\Sc1ccc(Cl)cc1)c1ccc(F)cc1`, for which the GI50 is 0.0844 µM with K-562 leukemia; 0.0597 µM in the assay on RPMI-8226 leukemia; 1.85 µM in the assay on UO-31 renal; 19.5 µM in the assay with OVCAR-4 ovarian; 2.06 µM in the assay with HT29 colon; 1.37 µM in the assay on OVCAR-5 ovarian. In addition, the GI50 is 2.46 µM in the assay with SF-268 CNS, 4.11 µM in the assay on COLO 205 colon, 0.281 µM in the assay on MOLT-4 leukemia and 0.171 µM with SR leukemia. The TGI in the assay with K-562 leukemia is above 100 µM; with RPMI-8226 leukemia, 1.1 µM; in the assay with UO-31 renal, above 40.3 µM; with OVCAR-4 ovarian it was 60.3 µM; with HT29 colon, above 51.6 µM; in the assay on OVCAR-5 ovarian it was 15.3 µM. Besides, the TGI in the assay on SF-268 CNS is 18.8 µM; with COLO 205 colon it was above 38.5 µM; with SR leukemia, above 100 µM.

As for `CSc1nc2nc(-c3ccccc3)c(C)c-2c2n1C(C)C(=O)N2` (stereo unspecified), the GI50 with K-562 leukemia was 41.5 µM; with RPMI-8226 leukemia it was 16.4 µM; in the assay with UO-31 renal it was 18.3 µM; with OVCAR-4 ovarian, 40.1 µM; in the assay on HT29 colon, 33.7 µM; in the assay on OVCAR-5 ovarian it was above 100 µM. Further, the GI50 with SF-268 CNS was 34.2 µM; with COLO 205 colon, 41.4 µM; in the assay with MOLT-4 leukemia, 40.3 µM; in the assay on SR leukemia it was 39.3 µM. Besides, the TGI with K-562 leukemia, in the assay with RPMI-8226 leukemia, in the assay with UO-31 renal, in the assay with OVCAR-4 ovarian, in the assay with HT29 colon and with OVCAR-5 ovarian was above 100 µM in each case. The TGI with SF-268 CNS, with COLO 205 colon, in the assay on MOLT-4 leukemia and in the assay with SR leukemia was above 100 µM in each case.

On to `Cc1cc(Br)c(NC(=O)c2c(-c3c(Cl)cccc3Cl)noc2C)c(Br)c1`, for which the GI50 with K-562 leukemia was above 100 µM; in the assay with RPMI-8226 leukemia, above 100 µM; with UO-31 renal it was above 100 µM; with OVCAR-4 ovarian, 73.4 µM; in the assay with HT29 colon it was above 100 µM; in the assay with OVCAR-5 ovarian, above 100 µM. Besides, the GI50 with SF-268 CNS, in the assay with COLO 205 colon, in the assay with MOLT-4 leukemia and in the assay on SR leukemia was above 100 µM throughout. Besides, the TGI in the assay with K-562 leukemia, in the assay with RPMI-8226 leukemia, with UO-31 renal, with OVCAR-4 ovarian, with HT29 colon and in the assay on OVCAR-5 ovarian was above 100 µM in each case. Also, the TGI in the assay with SF-268 CNS, with COLO 205 colon, in the assay on MOLT-4 leukemia and in the assay on SR leukemia was above 100 µM throughout.

Regarding `CCN(CC)c1ccc2nc3ccc(=[N+](CC)CC)cc-3oc2c1`, the GI50 in the assay with K-562 leukemia was 0.174 µM; in the assay on RPMI-8226 leukemia, 0.264 µM; with UO-31 renal it was 2.63 µM; with OVCAR-4 ovarian, 0.0463 µM; in the assay with HT29 colon it was 0.182 µM; in the assay with OVCAR-5 ovarian, 0.442 µM. Further, the GI50 is 0.184 µM with SF-268 CNS, 0.0222 µM with COLO 205 colon, 0.286 µM in the assay on MOLT-4 leukemia and 0.424 µM with SR leukemia. The TGI in the assay with K-562 leukemia was above 100 µM; in the assay on RPMI-8226 leukemia, 20 µM; with UO-31 renal it was 25 µM; in the assay on OVCAR-4 ovarian, 1.28 µM; in the assay on HT29 colon it was 2.67 µM; with OVCAR-5 ovarian it was 2.92 µM. Further, the TGI was 31.2 µM in the assay with SF-268 CNS, 0.86 µM in the assay on COLO 205 colon, above 100 µM in the assay with MOLT-4 leukemia and above 44.3 µM in the assay with SR leukemia.

Consider `CCCCS(=O)c1sc2nc(-c3cccs3)cc(-c3ccccc3)c2c1N` (stereo unspecified), for which the GI50 with K-562 leukemia was 5.96 µM; with RPMI-8226 leukemia, 3.59 µM; with UO-31 renal, 4.16 µM; in the assay on OVCAR-4 ovarian, 13.5 µM; with HT29 colon, 20.6 µM; with OVCAR-5 ovarian, 24.7 µM. The GI50 in the assay with SF-268 CNS is 23.3 µM; with COLO 205 colon it was 16.9 µM; with MOLT-4 leukemia, 3.8 µM; with SR leukemia, 6.46 µM. Moreover, the TGI in the assay on K-562 leukemia was above 100 µM; in the assay on RPMI-8226 leukemia, 23.7 µM; with UO-31 renal it was 49.2 µM; in the assay with OVCAR-4 ovarian, above 100 µM; with HT29 colon, above 100 µM; in the assay on OVCAR-5 ovarian it was above 88.9 µM. The TGI in the assay with SF-268 CNS is above 100 µM; in the assay on COLO 205 colon, 56.6 µM; in the assay on MOLT-4 leukemia, above 62.6 µM; in the assay on SR leukemia it was above 68 µM.

Consider `OCCCCC#Cc1ccccc1C#Cc1cccc(C(F)(F)F)c1`, for which the GI50 was 22.5 µM in the assay on K-562 leukemia; 21.7 µM with RPMI-8226 leukemia; 17.2 µM with UO-31 renal; 14 µM in the assay on OVCAR-4 ovarian; 10.5 µM with HT29 colon; 17.5 µM in the assay on OVCAR-5 ovarian. Further, the GI50 in the assay on SF-268 CNS is 19.1 µM; in the assay on COLO 205 colon, 19.2 µM; with MOLT-4 leukemia, 21.8 µM; in the assay on SR leukemia, 18.3 µM. Also, the TGI in the assay on K-562 leukemia worked out at 71.5 µM; with RPMI-8226 leukemia it was 40.6 µM; with UO-31 renal it was 31.6 µM; in the assay on OVCAR-4 ovarian it was 28.1 µM; in the assay with HT29 colon, 23.4 µM; in the assay on OVCAR-5 ovarian, 37.2 µM. In addition, the TGI in the assay with SF-268 CNS is 42.5 µM; in the assay with COLO 205 colon, 36.3 µM; in the assay with MOLT-4 leukemia it was 59.9 µM; in the assay on SR leukemia it was above 100 µM.
